Structures are written as SMILES.

The test system of experiment [1] is YAC128 mice. The experiment is described as follows: VCP mitochondrial level, YAC128 mouse striatum. It counts as in vivo. Particulars: YAC128, 3 mg kg^−1 per day from 3 to 6 months versus TAT, n=6. The protocol: Cells were washed with cold PBS and incubated on ice for 30 min in a lysis buffer (250 mM sucrose, 20 mM HEPES-NaOH, pH 7.5, 10 mM KCl, 1.5 mM MgCl2, 1 mM EDTA, protease inhibitor cocktail and phosphatase inhibitor cocktail). Mouse brains were minced and homogenized in the lysis buffer and then placed on ice for 30 min. Collected cells or tissue were disrupted 20 times by repeated aspiration through a 25-gauge needle, followed by a 30-gauge needle. The homogenates were spun at 800 g for 10 min at 4 °C, and the resulting supernatants were spun at 10,000 g for 20 min at 4 °C. The pellets were washed with lysis buffer and spun at 10,000 g again for 20 min at 4 °C. The final pellets were suspended in lysis buffer containing 1% Triton X-100 and were mitochondrial-rich lysate fractions. The supernatant was centrifuged at 100,000 g, 4 °C, for 1 h, the pellets were suspended in lysis buffer containing 1% Triton X-100 as ER fractions. The final supernatant was cytosolic fractions. The mitochondrial proteins VDAC, the ER protein WFS1 and the cytosolic protein Enolase were used as loading controls for mitochondrial, ER and cytosolic fractions, respectively.
YAC128 (FVB-Tg(YAC128)53Hay/J, JAX stock number: 004938) breeders (FVB/N genetic background) were purchased from Jackson Laboratories. […]
Protein concentrations were determined by Bradford assay. […]

Experiment [2] has as its system HdhQ111 mouse striatal cells. The experiment is described as follows: HMGB1 release after serum withdrawal. It counts as cell-based. Particulars: 24 h serum withdrawal, 3 μM. The protocol:
(§1) HdhQ7 and Q111 mouse striatal cells were treated with the HV-3 peptide or the control peptide TAT (3 μM, each) in an FBS-free DMEM medium or in DMEM containing 10% serum for 24 h. Medium from the cultured cells was harvested. Proteins from the medium were purified using Amicon Ultra 0.5 ml centrifugal filters (Millipore). HMGB1 release into the medium was then analysed by Western blotting with anti-HMGB1 antibody. In parallel, cell death was determined by measuring LDH release into the culture medium, using LDH-Cytotoxicity Assay Kit II (Roche, USA) by following the manufacturer's instruction.

In experiment [3] the test system is HdhQ111 / HdhQ7 mouse striatal cells. Nature of the experiment: LDH release (cell death) after serum withdrawal. It counts as cell-based. The protocol: as §1
Background: LDH leaks from cells whose membrane has failed.

For experiment [4], the system named is R6/2 mice. Nature of the experiment: Body weight and survival, R6/2. It counts as in vivo, mouse. As to conditions: R6/2, 5–13 weeks of age, 3 mg kg^−1 per day, n=15. The protocol: (§2) Male hemizygous R6/2 mice (Tg) and their age-matched wt littermates (5-week-old) were implanted with a 28-day osmotic pump (Alzet, Cupertino CA) containing TAT control peptide or HV-3 peptide, which delivered peptides to the mice at a rate of 3 mg kg^−1 per day. The first pump was implanted subcutaneously in the back of 5-week-old mice between the shoulders and replaced once, after 4 weeks.
The body weight and survival rate of HD mice and wt littermates were recorded throughout the study period.

For experiment [5], the system named is R6/2 mice. The experiment is described as follows: DARPP-32 protein level in R6/2 striatal extracts. As to conditions: 3 mg kg^−1 per day, n=6. The experiment is classed as in vivo, mouse. The protocol: as §2
Protein concentrations were determined by Bradford assay. Protein was resuspended in Laemmli buffer, loaded on SDS–PAGE, and transferred onto nitrocellulose membranes. Membranes were probed with the indicated antibodies, followed by visualization with ECL. Representative blots have been cropped for presentation. Images of full-size blots are presented in Supplementary Fig. 9.

Experiment [6] deals with R6/2 mice. The experiment is described as follows: PGC1-alpha protein level in mouse brain. It counts as in vivo. As to conditions: R6/2 mouse brains (peer review file). The source says: Comment 2: Also how do the authors fit this in with the well-established defects in PGC1-alpha in HD. Do you have to have both?
Response: We thank the reviewer for these insightful comments. Following […]
mouse brains of R6/2 mice treated with either HV-3 or control peptide TAT.
Consistent with previous studies, we observed that PGC1-alpha was decreased in HD R6/2 mouse brains. To our surprise, treatment with HV-3 can partially […]
on the right). It is possible that this increase in PGC1-alpha level is an indirect effect of improvement of mitochondrial mass and quality by the HV-3 treatment.
Recent studies have shown that PGC1-alpha regulates mitophagy and autophagy via TFEB (Tsunemi T et al., Sci Trans Med, 2014; Siddiqui A et al., J Neurosci, 2015). Thus, our result may raise another possibility that there is a correlation between PGC1alpha and VCP-mediated mitophagy in HD. However, the mechanism remains to be determined, and it is beyond the scope of this manuscript. In response to the reviewer’s comment, we now add the following sentences in the discussion in the revised manuscript.
“In addition, PGC1α, a key regulator of mitochondrial biogenesis implicated in HD pathogenesis, has recently been reported to regulate mitophagy and autophagy through TFEB signaling 65, 66. […]

As to `CSCC[C@H](NC(=O)[C@@H](NC(=O)[C@H](CC(C)C)NC(=O)[C@@H](NC(=O)[C@H](Cc1c[nH]cn1)NC(=O)CCCCCNC(=O)[C@H](CCCNC(=N)N)NC(=O)[C@H](CCCNC(=N)N)NC(=O)[C@H](CCCNC(=N)N)NC(=O)[C@H](CCC(N)=O)NC(=O)[C@H](CCCNC(=N)N)NC(=O)[C@H](CCCNC(=N)N)NC(=O)[C@H](CCCCN)NC(=O)[C@H](CCCCN)NC(=O)[C@H](CCCNC(=N)N)NC(=O)CNC(=O)[C@@H](N)Cc1ccc(O)cc1)C(C)C)C(C)C)C(=O)N[C@@H](CS)C(=O)N[C@@H](C)C(=O)N[C@H](C(N)=O)[C@@H](C)O` [HV-3], the “VCP translocation to mitochondria in striatum” value in experiment [1] is given as “blocked VCP translocation to mitochondria”. Further, in experiment [2], the HMGB1 release entry is recorded as “reduced the release of high mobility group box 1 (HMGB1)”. Further, in experiment [3] (HdhQ111 cells, 24 h serum withdrawal, 3 μM), the LDH release entry was “reduced the release of high mobility group box 1 (HMGB1) and lactate dehydrogenase (LDH)”. The “cell survival rate, wt” value in experiment [3] (wt counterparts of the HD models) was “only minor effects”. Moreover, in experiment [4], the body weight entry was “increased body weight”; the survival rate result was “increased body weight and survival rate”. Besides, the DARPP-32 protein level result in experiment [5] is given as “significantly increased DARPP-32 levels in the two mouse models”. Also, the PGC1-alpha protein level entry in experiment [6] is “improve the protein level of PGC1-alpha in the R6/2 mouse brains”.

Values taken from PMC5007466, “VCP recruitment to mitochondria causes mitophagy impairment and neurodegeneration in models of Huntington's disease” (Nature Communications, 2016).
